Like-named read-outs stand apart in the source and are kept apart here.
What was measured:
[1] = system: IFNα-induced TYK2/phosphoSTAT1 (Tyr701) in Kit225 T cells; test: Kit225 T cell assay for IFNα-induced TYK2/phosphoSTAT1 activity; type: cell-based, human; details: Kit225 cells, 80 ng/mL IFNα, AlphaLISA; read-out: IC50 IFNα-induced-STAT1 Phosphorylation
Method: (§1) The cells were treated with serially diluted compounds for 1 hour and stimulated with 80 ng/mL human recombinant IFNα (R&D Systems) for 15 minutes. The treated cells were then lysed and cellular phosphorylated-STAT1 (Tyr701) levels were measured by AlphaLISA (PerkinElmer, Cat#ALSU-PST1) according to the manufacturer’s instructions.

[2] = system: IL23-induced TYK2/phosphoSTAT3 (Tyr705) in Kit225 T cells; test: Kit225 T cell assay for IL23-induced TYK2/phosphoSTAT3 activity; type: cell-based, human; details: Kit225 cells, 100 ng/mL IL23, AlphaLISA; read-out: IC50 IL23-induced-STAT3 Phosphorylation
Method: as §1, with “100” for “80”, “IL23” for “IFNα”, “20” for “15”, “phosphorylated-STAT3 (Tyr705)” for “phosphorylated-STAT1 (Tyr701)”, “Cat# ALSU-PST3)” for “Cat#ALSU-PST1)”

[3] = system: IFNα-induced CXCL10 production in human whole blood; test: IFNα-induced CXCL10 production in human whole blood; type: cell-based
Method: Human whole blood [drawn with Ethylenediaminetetraacetic acid (EDTA) as anti-coagulant] was obtained from Zen-Bio Inc. (Durham, NC). […] The plasma was collected for detection of C-X-C motif chemokine 10 (CXCL10, IP10) secretion. CXCL10 was measured by Human CXCL10/IP-10 AlphaLISA Kit (PerkinElmer, #AL259 C/F) according to the manufacturer’s instructions.

[4] = system: JAK2-dependent EPO-induced phosphorylation of STAT5 (Tyr694/699) in TF1 cells; test: JAK cellular selectivity assay, EPO-pSTAT5 (JAK2); type: cell-based, human
Method: (§2) The cells were then ready for the assay after incubating for 2 hours in a humidified, 5% CO2 cell culture incubator at 37°C. […] The curve fit was generated, and statistical analysis was performed using GraphPad Prism. IC50 values were derived by non-linear regression analysis and defined as the compound concentration at which the response level was reduced to half of its maximum relative to a DMSO control.

[5] = system: moderate to severe psoriasis patients; parameters: method as in PMID 30205746; details: phase II, 267 patients; cited from earlier work
[6] = system: IL12-induced IFNγ production in human PBMCs; test: IL12-induced IFNγ production in human PBMCs; type: cell-based; details: PBMC, IL12 overnight, read-out: TYK2-associated IL12-induced-IFNγ Production in Human PBMCs: IC50
Method: Human PBMC samples were obtained from iQ Biosciences, CA. 1.0 × 10^6/mL PBMCs were seeded in complete RPMI at a sterilized U-shaped 96-well plate with a volume of 200 μL/well. PBMCs were treated by serially-diluted test compounds, and incubated with 40 ng/mL recombinant human IL12 (Biolegend, #573002) for overnight in a humidified, 5% CO2 cell culture incubator at 37°C. The supernatant was then collected for detection of IFNγ secretion. IFNγ level was measured by Human IFNγ AlphaLISA Kit (PerkinElmer, AL217C/F) according to the manufacturer’s instructions.

[7] = system: JAK1-dependent IL6-induced phosphorylation of STAT3 (Tyr705) in TF1 cells; test: JAK cellular selectivity assay, IL6-pSTAT3 (JAK1); type: cell-based; details: Homo sapiens, TF-1, read-out: JAK Cellular Selectivity (IC50) IL6-pSTAT3 (JAK1)
Method: as §2

[8] = system: JAK1/3-dependent IL2-induced phosphorylation of STAT5 (Tyr694/699) in Kit225 cells; test: JAK cellular selectivity assay, IL2-pSTAT5 (JAK1/3); type: cell-based; details: Homo sapiens, KIT225, read-out: JAK Cellular Selectivity (IC50) IL2-pSTAT5 (JAK1/3)
Method: as §2

[9] = system: IL23-induced-IL17 production in mouse splenocytes; test: IL23-induced IL17 production in mouse splenocytes; type: cell-based; details: Splenocyte; IL23-stimulated mouse splenocytes; read-out: mIL17 IC50
Method: (§3) generated by non-linear regression analysis to determine the IC50 values of compounds using […]
(Monkey, Canine, Rat and Mouse)
(A) Suppression of IL23-induced-IL17 production in mouse splenocytes by TYK2 JH2 ligands, […]
(§4) JH2 ligands, SHR2915, 0936, 1039 and 1213, in mouse splenocytes (B), Canine PBMCs (C), Rat PBMCs (D) and Macaque PBMCs (E). Inhibition data were calculated by comparison to vehicle […]
(§5) response curves were then generated to determine the IC50 values as derived by non-linear regression analysis using GraphPad Prism. […]

[10] = system: IL12-induced-IFNg production in mouse splenocytes; test: IL12-induced IFNγ production in mouse splenocytes; type: cell-based; details: Splenocyte
[11] = system: IL12-induced-IFNg production in Canine PBMCs; test: IL12-induced IFNγ production in canine PBMCs; type: cell-based; details: Canis lupus familiaris, PBMC
Method: as §3
(§6) (Monkey, Canine, Rat and Mouse) […]
as §4, §5

[12] = system: IL12-induced-IFNg production in Rat PBMCs; test: IL12-induced IFNγ production in rat PBMCs; type: cell-based; details: PBMC
Method: as §3, §6, §4, §5

[13] = system: IL12-induced-IFNg production in Macaque PBMCs; test: IL12-induced IFNγ production in macaque PBMCs; type: cell-based, Macaque (Cyno Monkey); details: Primates, PBMC, read-out: IL12-induced-IFNg, IC50, Monkey
Method: as §3, §6, §4, §5

| Molecule | IC50 [1] | IC50 [2] | IC50 ([3]; Donor 1, read-out: IFNa-induced-CXCL10 Production in Human Whole Blood IC50, Donor 1) | IC50 ([3]; Donor 2, read-out: IFNa-induced-CXCL10 Production in Human Whole Blood IC50, Donor 2) | IC50 ([3]; Donor 3, read-out: IFNa-induced-CXCL10 Production in Human Whole Blood IC50, Donor 3) | IC50 ([3]; average of Donor 1-3, read-out: IFNa-induced-CXCL10 Production in Human Whole Blood IC50, Average) | IC50 ([4]; TF1 cells, read-out: JAK Cellular Selectivity (IC50) EPO-pSTAT5 (JAK2)) | Daily dose at which clinically effective [5] | IC50 ([3]; Homo sapiens, 16 h, read-out: TYK2-associated IFNα-induced-CXCL10 Production in Human Whole Blood: IC50) | IC50 [6] | IC50 [7] | IC50 ([4]; Homo sapiens, TF-1, read-out: JAK Cellular Selectivity (IC50) EPO-pSTAT5 (JAK2)) | IC50 [8] | IC50 [9] | IC50 [10] | IC50 [11] | IC50 [12] | IC50 [13] |
| --- | --- | --- | --- | --- | --- | --- | --- | --- | --- | --- | --- | --- | --- | --- | --- | --- | --- | --- |
| Deucravacitinib | 8.5 nM | 5 nM | 110 nM | 94 nM | 83 nM | 96 nM | > 10000 nM | ≥ 3 mg |  |  |  |  |  |  |  |  |  |  |
| CNC(=O)c1nnc(Nc2ccc(N3CCC3)cn2)cc1Nc1cccc(-c2ncn(C)n2)c1OC [SHR2915] |  |  |  |  |  |  |  |  | 160 nM | 45 nM | 200 ± 11 nM | > 10000 nM | 2300 ± 970 nM | 11 nM | 60 nM | 33 nM | 3 nM | 14 nM |

From publication PMC9186491, “Novel Small Molecule Tyrosine Kinase 2 Pseudokinase Ligands Block Cytokine-Induced TYK2-Mediated Signaling Pathways” (Frontiers in Immunology, 2022)
